{"source": "paper PMC10482691", "about": "“LTP induction by structural rather than enzymatic functions of CaMKII” (Nature, 2023)", "key": {"[1]": {"target": "purified CaMKIIα binding to GST–GluN2B-c WT (Homo sapiens, UniProt Q9UQM7)", "assay": "CaMKII binding to immobilized GST–GluN2B-c in vitro", "settings": "for bound CaMKIIα (immunoblot, relative): Ca2+/CaM", "experimental": "CaMKII–GluN2B binding assays were done as described[9],[13],[25]. Briefly, GST–GluN2B-c tail (GST–2BC) was immobilized on anti-GST antibody-coated microtiter plates (Thermo Scientific), blocked for 30 min with 5% BSA and then overlaid with […] CaMKII (subunit concentration) in PIPES-buffered saline (pH 7.2) containing 2 mM Ca^2+, 1 μM CaM, 1 mM Mg^2+, 0.1% BSA and 0.1% Tween-20 for 20 min at room temperature. […] After extensive washes in buffer containing 1 mM EGTA, GST–2BC and bound CaMKII were eluted for 10 min in SDS loading buffer at 95 °C. Bound CaMKII was measured via immunoblot."}, "[2]": {"target": "CDK2/cyclinE(h) (Homo sapiens, UniProt P24941)", "assay": "Kinase selectivity panel (residual activity at 1 μM)", "assay_type": "biochemical", "settings": "inhibitor at 1 μM"}, "[3]": {"tested_on": "CA3–CA1 LTP in CaMKII T286A mutant slices", "assay": "LTP field recordings in hippocampal slices of T286A mice", "assay_type": "cell-based, mouse", "settings": "for fEPSP slope (normalized to baseline): individual slices, sheet 3c", "experimental": "WT and mutant mouse hippocampal slices were prepared using P56–P70 mice. Isoflurane-anesthetized mice were rapidly decapitated, and the brain was dissected in an ice-cold high-sucrose solution containing 220 mM sucrose, 12 mM MgSO4, 10 mM glucose, 0.2 mM CaCl2, 0.5 mM KCl, 0.65 mM NaH2PO4, 13 mM NaHCO3 and 1.8 mM ascorbate. Transverse hippocampal slices (400 μm) were made using a tissue chopper (McIlwain) and transferred into 32 °C ACSF containing 124 mM NaCl, 3.5 mM KCl, 1.3 mM NaH2PO4, 26 mM NaHCO3, 10 mM glucose, 2 mM CaCl2, 1 mM MgSO4 and 1.8 mM ascorbate. All slices were recovered in 95% O2/5% CO2 for at least 1.5 h before experimentation.\nFor electrophysiological slice recording experiments, a glass micropipette (typical resistance of 0.4–0.8 megaohm when filled with ACSF) was used to record fEPSPs from the CA1 dendritic layer in response to stimulation of the Schaffer collaterals using a tungsten bipolar electrode. Slices were continually perfused with 30.5 °C ± 0.5 °C ACSF at a rate of 2.5 ± 0.5 ml min^−1 during recordings. Stimuli were delivered every 20 s, and three responses (1 min) were averaged for analysis. Data were analysed using WinLTP software with slope calculated as the initial rise from 10 to 60% of the response peak. Input–output curves were generated by increasing the stimulus intensity at a constant interval until a maximum response or population spike was noted to determine stimulation that elicits 50% of maximum slope. […] A stable baseline was acquired for a minimum of 20 min at 50% maximum slope before high-frequency stimulation (HFS; 2 × 100 Hz, 10 s interval) was applied. Responses were recorded for 40 or 60 min after HFS. Change in slope was calculated as a ratio of the average slope of the 20 min baseline (before HFS). Bar graphs of the percentage of fEPSP slope were calculated by averaging the last 10 min time points post-HFS and normalized to baseline."}, "[4]": {"target": "JAK3(h) (Homo sapiens, UniProt P52333)", "sequence (P52333 whole entry)": "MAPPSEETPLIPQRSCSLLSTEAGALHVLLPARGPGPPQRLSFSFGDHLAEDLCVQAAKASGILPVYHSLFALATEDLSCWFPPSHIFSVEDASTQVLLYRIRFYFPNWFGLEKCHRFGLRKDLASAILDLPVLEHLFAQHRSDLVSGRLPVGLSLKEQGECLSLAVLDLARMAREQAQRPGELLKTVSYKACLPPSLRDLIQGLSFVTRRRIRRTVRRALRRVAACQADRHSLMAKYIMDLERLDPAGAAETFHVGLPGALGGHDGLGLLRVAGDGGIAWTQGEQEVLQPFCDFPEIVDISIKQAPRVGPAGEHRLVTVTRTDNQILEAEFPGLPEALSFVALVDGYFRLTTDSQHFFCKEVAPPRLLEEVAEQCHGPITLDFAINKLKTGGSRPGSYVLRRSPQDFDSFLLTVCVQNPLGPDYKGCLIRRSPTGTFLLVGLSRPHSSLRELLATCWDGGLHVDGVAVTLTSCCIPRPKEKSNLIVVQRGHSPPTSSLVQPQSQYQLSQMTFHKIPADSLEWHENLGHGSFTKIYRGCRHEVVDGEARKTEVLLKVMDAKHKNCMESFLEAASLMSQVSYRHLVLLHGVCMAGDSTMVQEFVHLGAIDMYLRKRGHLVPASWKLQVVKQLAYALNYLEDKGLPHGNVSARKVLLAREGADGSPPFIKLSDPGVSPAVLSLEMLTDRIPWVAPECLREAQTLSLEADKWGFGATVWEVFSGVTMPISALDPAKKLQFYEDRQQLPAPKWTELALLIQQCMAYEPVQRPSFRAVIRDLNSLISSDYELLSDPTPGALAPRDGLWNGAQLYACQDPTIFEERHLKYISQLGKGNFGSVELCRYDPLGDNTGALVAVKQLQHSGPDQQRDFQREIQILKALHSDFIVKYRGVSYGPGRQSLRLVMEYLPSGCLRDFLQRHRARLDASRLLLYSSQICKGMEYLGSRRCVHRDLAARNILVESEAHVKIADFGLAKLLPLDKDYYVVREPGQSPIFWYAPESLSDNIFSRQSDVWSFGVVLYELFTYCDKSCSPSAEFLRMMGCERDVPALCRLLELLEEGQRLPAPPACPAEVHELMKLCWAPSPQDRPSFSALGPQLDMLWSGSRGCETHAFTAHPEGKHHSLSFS", "assay": "Kinase selectivity panel (residual activity at 1 μM)", "assay_type": "biochemical", "settings": "inhibitor at 1 μM; read-out: residual kinase activity in % of maximal activity"}}, "note": "“And” between values parts separate entries of the source, which are not always exact repeats. Identical values can stand only once.", "data": [{"smiles": "NCCNc1cccc(-c2ccnc3[nH]c4ccccc4c23)c1", "note": "[AS283]", "values": [{"measurement": "effect on CaMKII binding to GluN2B in vitro", "setting": "[1]; 10 μM AS283 in the presence of ADP", "value": "did not inhibit"}, {"measurement": "Ca2+/CaM-induced CaMKII binding when ATP was substituted with AS283", "setting": "[1]; AS283 versus ATP", "value": "significantly enhanced"}, {"measurement": "bound CaMKIIα (immunoblot, relative)", "setting": "[1]; 10 μM AS283, no nucleotide, GST–GluN2B-c WT", "value": "7.5135 and 8.574 and 8.878 and 7.419"}, {"measurement": "bound CaMKIIα (immunoblot, relative)", "setting": "[1]; 1 mM ADP with 10 μM AS283", "value": "1.196 and 1.2737 and 1.086 and 1.094"}, {"measurement": "residual kinase activity in % of maximal activity", "setting": "[2]", "value": 41, "unit": "%"}, {"measurement": "effect on LTP in slices from T286A mutant mice", "setting": "[3]; AS283 10 μM", "value": "enabled LTP"}, {"measurement": "LTP quantification (fEPSP slope normalized to baseline)", "setting": "[3]; T286A mice, 10 μM AS283 during LTP induction", "value": "173.525% and 142.167% and 174.092% and 153.624%"}, {"measurement": "fEPSP slope (normalized to baseline)", "setting": "[3]; Time (min) 1.33333", "value": "226.574 and 276.052 and 180.946 and 150.731"}, {"measurement": "fEPSP slope (normalized to baseline)", "setting": "[3]; Time (min) 2.33333", "value": "192.365 and 206.349 and 186.037 and 149.446"}, {"measurement": "fEPSP slope (normalized to baseline)", "setting": "[3]; Time (min) 3.33333", "value": "182.945 and 175.983 and 184.471 and 147.196"}, {"measurement": "fEPSP slope (normalized to baseline)", "setting": "[3]; Time (min) 4.33333", "value": "177.987 and 162.181 and 176.442 and 135.626"}, {"measurement": "fEPSP slope (normalized to baseline)", "setting": "[3]; Time (min) 5.33333", "value": "158.156 and 152.519 and 169.979 and 137.876"}, {"measurement": "fEPSP slope (normalized to baseline)", "setting": "[3]; Time (min) 6.33333", "value": "150.223 and 154.589 and 168.609 and 152.017"}, {"measurement": "fEPSP slope (normalized to baseline)", "setting": "[3]; Time (min) 7.33333", "value": "124.442 and 151.829 and 171.154 and 133.698"}, {"measurement": "fEPSP slope (normalized to baseline)", "setting": "[3]; Time (min) 8.33333", "value": "102.628 and 144.237 and 169 and 134.983"}, {"measurement": "fEPSP slope (normalized to baseline)", "setting": "[3]; Time (min) 9.33333", "value": "104.115 and 145.618 and 173.309 and 134.983"}, {"measurement": "fEPSP slope (normalized to baseline)", "setting": "[3]; Time (min) 10.3333", "value": "122.955 and 140.787 and 178.596 and 135.626"}, {"measurement": "fEPSP slope (normalized to baseline)", "setting": "[3]; Time (min) 11.3333", "value": "100.149 and 132.505 and 172.721 and 133.055"}, {"measurement": "fEPSP slope (normalized to baseline)", "setting": "[3]; Time (min) 12.3333", "value": "126.921 and 132.505 and 175.267 and 134.662"}, {"measurement": "fEPSP slope (normalized to baseline)", "setting": "[3]; Time (min) -1", "value": "91.7204 and 91.0973 and 91.6479 and 102.523"}, {"measurement": "fEPSP slope (normalized to baseline)", "setting": "[3]; Time (min) -2", "value": "90.7288 and 96.6184 and 93.802 and 102.844"}, {"measurement": "fEPSP slope (normalized to baseline)", "setting": "[3]; Time (min) -3", "value": "103.619 and 106.97 and 89.298 and 98.6662"}, {"measurement": "fEPSP slope (normalized to baseline)", "setting": "[3]; Time (min) -4", "value": "104.115 and 88.3368 and 91.2562 and 100.916"}, {"measurement": "fEPSP slope (normalized to baseline)", "setting": "[3]; Time (min) -5", "value": "91.7204 and 91.0973 and 97.7186 and 101.237"}, {"measurement": "fEPSP slope (normalized to baseline)", "setting": "[3]; Time (min) -6", "value": "96.1825 and 96.6184 and 96.7395 and 100.273"}, {"measurement": "fEPSP slope (normalized to baseline)", "setting": "[3]; Time (min) -7", "value": "87.2583 and 94.548 and 98.5019 and 100.916"}, {"measurement": "fEPSP slope (normalized to baseline)", "setting": "[3]; Time (min) -8", "value": "96.1825 and 95.9282 and 99.6769 and 97.7021"}, {"measurement": "fEPSP slope (normalized to baseline)", "setting": "[3]; Time (min) -9", "value": "98.6614 and 96.6184 and 102.614 and 101.88"}, {"measurement": "fEPSP slope (normalized to baseline)", "setting": "[3]; Time (min) -10", "value": "90.7288 and 91.0973 and 99.0894 and 97.0593"}, {"measurement": "fEPSP slope (normalized to baseline)", "setting": "[3]; Time (min) -11", "value": "103.124 and 102.139 and 101.439 and 98.9876"}, {"measurement": "fEPSP slope (normalized to baseline)", "setting": "[3]; Time (min) -12", "value": "109.073 and 120.083 and 100.656 and 94.4882"}, {"measurement": "fEPSP slope (normalized to baseline)", "setting": "[3]; Time (min) -13", "value": "105.602 and 105.59 and 103.398 and 96.4165"}, {"measurement": "remaining activity at 1 µM", "setting": "[4]", "value": 92, "unit": "%"}]}]}
